Experimental data as given in patent publication US12662482B2 (The Johns Hopkins University, priority 2020, dated 2026).
Structures can show the parent of a compound that is named as a salt.

system: NCI60 cancer cell lines; test: not given; conditions: cited from earlier work

Compound | anticancer activity
CN(C)CCNC(=O)c1cccn2c(=O)c3cc4ccccc4cc3nc12 [BMH-21, 12H-Benzo[g]pyrido[2,1-b]quinazoline-4-carboxamide, N-[2(dimethylamino)ethyl]-12-oxo] | anticancer activity

system: RPA194; test: RPA194 destruction / Pol I inhibition, high-content imaging in A375 cells; assay type: cell-based; conditions: A375 cells treated for 4 hours, anti-RPA194 immunofluorescence; pIC50 >= 5.02 deemed a Pol I inhibitor
Procedure: Cell culture: A375 cells (CRL-1619, ATCC) were grown in DMEM (GJBCO) supplemented with […] (GTBCO) in 5% CO2 at 37° C.
Cell treatment and Imaging: 18 hours post-seeding in cell carrier black 384-well plates (PerkinElmer) at 15 000 cells/well, A375 cells were treated for 4 hours with a positive control or test compounds (9 serial semi-log dilutions, top concentration 10 μM). Upon treatment A375 cells were (i) fixed for 15 min at RT with 4% of paraformaldehyde, (ii) permeabilized for 20 min at RT with 0.1-0.5% of NP-40, (iii) incubated with primary antibodies at 4° C.: anti-RPA194 (1:1000-1:1250 dilution, sc-48385, Santa Cruz Biotechnology) and anti-gH2Ax (1:5000 dilution, 81299, Abcam or 1:4000, JBW302, Millipore) (iv) incubated for 1 h at RT with Hoechst (1:5000 dilution, H3570, ThermoFisher) and secondary antibodies: anti-mouse-AlexaFluor488 (1:2000 dilution, A11001, ThermoFisher) and anti-rabbit-AlexaFluor647 (1:2000 dilution, A21443, ThermoFisher) or goat anti-mouse AlexaFluor-594 (1:1000 dilution). Images were acquired on an Operetta CLS High-Content Analysis System (PerkinElmer) (40× objective; 9 fields/well) and processed using the Columbus Image Analysis System (PerkinElmer) or by using Molecular Devices ImageXpress Micro XLS High Content Imager and MetaXpress high-content acquisition and analysis software.
In the table below, (+) is associated with a pIC50 5.02 to 5.8; (++) with pIC50 5.8 to 6.3; and (+++) with a pIC50 above 6.3.

Compound | Activity Range (pIC50)
C[C@@H](CN1CC[C@@H](O)C1)NC(=O)c1cccn2c(=O)c3ccc4ccccc4c3nc12 [Example 29, N-((S)-1-((R)-3-hydroxypyrrolidin-1-yl)propan-2-yl)-7-oxo-7H-benzo[h]pyrido[2,1-b]quinazoline-12-carboxamide hydrochloride] | ++ ((++) with pIC50 5.8 to 6.3)
C[C@H](CN1CC[C@H](O)C1)NC(=O)c1cccn2c(=O)c3ccc4ccccc4c3nc12 [Example 30, N-((R)-1-((S)-3-hydroxypyrrolidin-1-yl)propan-2-yl)-7-oxo-7H-benzo[h]pyrido[2,1-b]quinazoline-12-carboxamide hydrochloride] | +++ ((+++) with a pIC50 above 6.3)
C[C@H](CN1CC[C@@H](O)C1)NC(=O)c1cccn2c(=O)c3ccc4ccccc4c3nc12 [Example 31, N-((R)-1-((R)-3-hydroxypyrrolidin-1-yl)propan-2-yl)-7-oxo-7H-benzo[h]pyrido[2,1-b]quinazoline-12-carboxamide hydrochloride] | +++ ((+++) with a pIC50 above 6.3)
O=C(NCCO)c1cccn2c(=O)c3ccc4ccccc4c3nc12 [Example 32, N-(2-hydroxyethyl)-7-oxo-7H-benzo[h]pyrido[2,1-b]quinazoline-12-carboxamide; hydrochloride] | + ((+) is associated with a pIC50 5.02 to 5.8)
O=C(NCCN1CC[C@H](F)C1)c1cccn2c(=O)c3ccc4ccccc4c3nc12 [Example 33, (S)-N-(2-(3-fluoropyrrolidin-1-yl)ethyl)-7-oxo-7H-benzo[h]pyrido[2,1-b]quinazoline-12-carboxamide; hydrochloride] | + ((+) is associated with a pIC50 5.02 to 5.8)
O=C(NCCCN1CC2CCC(C1)O2)c1cccn2c(=O)c3ccc4ccccc4c3nc12 [Example 34, N-(3-(8-oxa-3-azabicyclo[3.2.1]octan-3-yl)propyl)-7-oxo-7H-benzo[h]pyrido[2,1-b]quinazoline-12-carboxamide; hydrochloride] | + ((+) is associated with a pIC50 5.02 to 5.8)
C[C@@H]1CCCN1CCNC(=O)c1cccn2c(=O)c3ccc4ccccc4c3nc12 [Example 35, (R)-N-(2-(2-methylpyrrolidin-1-yl)ethyl)-7-oxo-7H-benzo[h]pyrido[2,1-b]quinazoline-12-carboxamide; hydrochloride 1] | + ((+) is associated with a pIC50 5.02 to 5.8)
C[C@H]1CCCN1CCNC(=O)c1cccn2c(=O)c3ccc4ccccc4c3nc12 [Example 36, (S)-N-(2-(2-methylpyrrolidin-1-yl)ethyl)-7-oxo-7H-benzo[h]pyrido[2,1-b]quinazoline-12-yl)ethan-1-carboxamide; hydrochloride] | + ((+) is associated with a pIC50 5.02 to 5.8)
CN1CC(CNC(=O)c2cccn3c(=O)c4ccc5ccccc5c4nc23)C1 [Example 37, N-((1-methylazetidin-3-yl)methyl)-7-oxo-7H-benzo[h]pyrido[2,1-b]quinazoline-12-carboxamide; hydrochloride] | + ((+) is associated with a pIC50 5.02 to 5.8)
CN(C)CCCNC(=O)c1cccn2c(=O)c3ccc4ccccc4c3nc12 [Example 38, N-(3-(dimethylamino)propyl)-7-oxo-7H-benzo[h]pyrido[2,1-b]quinazoline-12-carboxamide; hydrochloride] | + ((+) is associated with a pIC50 5.02 to 5.8)
O=C(NCCCN1CC[C@H](O)C1)c1cccn2c(=O)c3ccc4ccccc4c3nc12 [Example 39, (S)-N-(3-(3-hydroxypyrrolidin-1-yl)propyl)-7-oxo-7H-benzo[h]pyrido[2,1-b]quinazoline-12-carboxamide hydrochloride] | + ((+) is associated with a pIC50 5.02 to 5.8)
O=C(NCCCN1CC[C@@H](O)C1)c1cccn2c(=O)c3ccc4ccccc4c3nc12 [Example 40, (R)-N-(3-(3-hydroxypyrrolidin-1-yl)propyl)-7-oxo-7H-benzo[h]pyrido[2,1-b]quinazoline-12-carboxamide; hydrochloride] | + ((+) is associated with a pIC50 5.02 to 5.8)

system: mouse xenograft; test: not given; conditions: mouse xenograft assays; cited from earlier work

Compound | tumor burden
CN(C)CCNC(=O)c1cccn2c(=O)c3cc4ccccc4cc3nc12 [BMH-21, 12H-Benzo[g]pyrido[2,1-b]quinazoline-4-carboxamide, N-[2(dimethylamino)ethyl]-12-oxo] | reduced tumor burden
